pIC50: −log10 of the molar value.
System: 994946-033-R-J1-PDC complex spheroid viability
Assay: Anticancer human tumor 994946-033-R-J1-PDC patient-derived melanoma cell line growth inhibition [POLQ]
Details: for pIC50: curve of first compound; for viability, T/C: stronger effect = lower value
Procedure: Multicellular complex tumor spheroid response to Polymerase (POL) inhibitors (novobiocin, ART-558, RP6685) in combination with a variety of drugs and investigational agents in selected tumor cell lines
The POL inhibitors (novobiocin, ART-558, and RP6685) were evaluated both individually and in combination with standard of care and investigational anticancer small molecules within a complex spheroid model of solid tumors. . Complex spheroids include a stromal component modeled by human endothelial cells (HUVEC) and fibroblasts modeled by human mesenchymal stem cells (MSCs). The concentration ranges selected for each drug and investigational agent were based upon clinically achievable concentrations if the clinical Cmax of the agent was known.
Compounds. The drugs and investigational agents: novobiocin (NSC847541), ART-558 (NSC835418), RP-6685 (NSC848927), peposertib (NSC802822), ceralasertib (NSC780249), elimusertib (NSC800525), camonsertib (NSC841442), AZD-1390 (NSC803789), olaparib (NSC753686), talazoparib (NSC767125), rucaparib (NSC756644), sotorasib (NSC818433), MRTX-1133 (NSC836407), SN-38 (NSC673596), topotecan (NSC609699), epotoside (NSC141540), doxorubicin (NSC123127), gemcitabine (NSC613327), 5-fluorouracil (NSC19893), paclitaxel (NSC125973), vemurafenib (NSC761431), MSA-2 (NSC828583), SN-011 (NSC837082), adavosertib (NSC754352), prexasertib (NSC758257), carboplatin (NSC241240) and oxaliplatin (NSC266046), were obtained from the National Cancer Institute (NCI) Developmental Therapeutics Program Chemical Repository (21). The FDA-approved anticancer drug set is available from the Developmental Therapeutics Program at https://dtp.cancer.gov/organization/dscb/obtaining/. […] The stock solutions were prepared in dimethyl sulfoxide (DMSO, Sigma-Aldrich, St. Louis, MO, cat. D2650), except for the platinum compounds which were prepared in saline (Quality Biological, Gaithersburg, MD, cat. 114-055-101), at 800-fold the tested concentration and stored at -70 degrees C prior to their use. All drugs and investigational agents were tested over a range starting from a high concentration at or near the clinical Cmax and decreasing in half-log increments. If the clinical Cmax for an agent had not been determined, the highest concentration tested was 10 microM, except for SN-38, which was tested at a high concentration of 1 microM.
Cell Culture. All cells were maintained in an incubator at 37 degrees C and 5% CO2 with 95% humidity. The PDC lines were cultured according to standard operating procedures established by the NCI PDMR (https://pdmr.cancer.gov). Table 3 of the manuscript, lists the cell lines along with the number of the three cell types plated to form the mct-spheroids and media for tumor cell growth. After thawing, all PDC lines, except 997537-175-T-J1-PDC and 415267-285-R-J2-PDC, were cultured in Matrigel-coated flasks prepared with a working solution of 1X Ham's F-12 nutrient mix, without supplementation (Thermo Fisher Scientific, cat. 11765054), 100 U/mL penicillin-streptomycin (Thermo Fisher Scientific, cat. 15140122), and 2.5% Matrigel (Corning Inc., Corning, NY, cat. 354248) for the first three passages. The two PDC lines 997537-175-T-J1-PDC and 415267-285-R-J2-PDC were cultured on uncoated flasks. The 857933-349-R-J2-PDC line was cultured in 6C/Colon 1B media containing advanced DMEM/F-12 (Thermo Fisher Scientific, cat. 12634028), 10 mM HEPES (Thermo Fisher Scientific, cat. 15630080), 1X GlutaMAX supplement (Thermo Fisher Scientific, cat. 35050061), 0.1 mg/mL primocin (InvivoGen, San Diego, CA, cat. ant-pm-2), 10% defined fetal bovine serum, heat inactivated (HyClone Laboratories Inc., Logan, UT, cat. SH30070.03HI), 50% L-WRN conditioned media (ATCC, cat. CRL-3276), 1.25 mM N-Acetyl-L-cysteine (Sigma-Aldrich, cat. A9165), 10 mM nicotinamide (Sigma-Aldrich, cat. N0636), 1X B-27 supplement (Thermo Fisher Scientific, cat. 17504044), 1X N-2 supplement (Thermo Fisher Scientific, cat. […]

[1] = second compound 0.0316 µM, first compound 0.0316 µM
[2] = second compound 0.0316 µM, first compound 0.1 µM
[3] = second compound 0.0316 µM, first compound 0.316 µM
[4] = second compound 0.0316 µM, first compound 1 µM
[5] = second compound 0.0316 µM, first compound 3.16 µM
[6] = second compound 0.0316 µM, first compound 10 µM
[7] = second compound 0.1 µM, first compound 0.0316 µM
[8] = second compound 0.1 µM, first compound 0.1 µM
[9] = second compound 0.1 µM, first compound 0.316 µM
[10] = second compound 0.1 µM, first compound 1 µM
[11] = second compound 0.1 µM, first compound 3.16 µM
[12] = second compound 0.1 µM, first compound 10 µM
[13] = second compound 0.316 µM, first compound 0.0316 µM
[14] = second compound 0.316 µM, first compound 0.1 µM
[15] = second compound 0.316 µM, first compound 0.316 µM
[16] = second compound 0.316 µM, first compound 1 µM
[17] = second compound 0.316 µM, first compound 3.16 µM
[18] = second compound 0.316 µM, first compound 10 µM
[19] = second compound 1 µM, first compound 0.0316 µM
[20] = second compound 1 µM, first compound 0.1 µM
[21] = second compound 1 µM, first compound 0.316 µM
[22] = second compound 1 µM, first compound 1 µM
[23] = second compound 1 µM, first compound 3.16 µM
[24] = second compound 1 µM, first compound 10 µM
[25] = second compound 3.16 µM, first compound 0.0316 µM
[26] = second compound 3.16 µM, first compound 0.1 µM
[27] = second compound 3.16 µM, first compound 0.316 µM
[28] = second compound 3.16 µM, first compound 1 µM
[29] = second compound 3.16 µM, first compound 3.16 µM
[30] = second compound 3.16 µM, first compound 10 µM
[31] = second compound 10 µM, first compound 0.0316 µM
[32] = second compound 10 µM, first compound 0.1 µM
[33] = second compound 10 µM, first compound 0.316 µM
[34] = second compound 10 µM, first compound 1 µM
[35] = second compound 10 µM, first compound 3.16 µM
[36] = second compound 10 µM, first compound 10 µM
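Also: spheroids exposed to drugs for 7 days.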
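For viability, T/C in this document: 100% = DMSO vehicle treated spheroids.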

With `Nc1ccn(C2OC(CO)C(O)C2(F)F)c(=O)n1` (centres undefined) + COC1C(OC(N)=O)C(O)C(Oc2ccc3c(O)c(NC(=O)c4ccc(O)c(CC=C(C)C)c4)c(=O)oc3c2C)OC1(C)C the pIC50 (second compound 0.0316 µM) was > 7.50, the pIC50 (second compound 0.1 µM) was > 7.50 and the pIC50 (second compound 0.316 µM) was > 7.50. For the same compound, the pIC50 (second compound 1 µM) was > 7.50, the pIC50 (second compound 3.16 µM) was 7.45 and the pIC50 (second compound 10 µM) was > 7.50. For the same compound, the viability, T/C [1] was 24.4%, the viability, T/C [2] was 9.96% and the viability, T/C [3] was 7.61%. The viability, T/C [4] was 7.06%, the viability, T/C [5] was 5.98% and the viability, T/C [6] was 1.31%. It also gave a viability, T/C [7] of 30.7%, a viability, T/C [8] of 9.93% and a viability, T/C [9] of 5.26%. It also gave a viability, T/C [10] of 7.92%, a viability, T/C [11] of 7.09% and a viability, T/C [12] of 2.72%. It also gave a viability, T/C [13] of 26.8%, a viability, T/C [14] of 7.23% and a viability, T/C [15] of 6.54%. It also gave a viability, T/C [16] of 6.27%, a viability, T/C [17] of 6.01% and a viability, T/C [18] of 3.92%. It also gave a viability, T/C [19] of 28.8%, a viability, T/C [20] of 4.66% and a viability, T/C [21] of 7.79%. It also gave a viability, T/C [22] of 8.09%, a viability, T/C [23] of 5.28% and a viability, T/C [24] of 2.12%. For the same compound, the viability, T/C [25] was 54.6%, the viability, T/C [26] was 7.74% and the viability, T/C [27] was 6.32%. It also gave a viability, T/C [28] of 6%, a viability, T/C [29] of 4.45% and a viability, T/C [30] of 1.73%. It also gave a viability, T/C [31] of 19.9%, a viability, T/C [32] of 7.37% and a viability, T/C [33] of 6.97%. It also gave a viability, T/C [34] of 6.33%, a viability, T/C [35] of 4.89% and a viability, T/C [36] of 2.82%.
`O=C(c1cc(Cc2n[nH]c(=O)c3ccccc23)ccc1F)N1CCN(C(=O)C2CC2)CC1` + COC1C(OC(N)=O)C(O)C(Oc2ccc3c(O)c(NC(=O)c4ccc(O)c(CC=C(C)C)c4)c(=O)oc3c2C)OC1(C)C gave a pIC50 (second compound 0.0316 µM) of 5.32, a pIC50 (second compound 0.1 µM) of 5.34 and a pIC50 (second compound 0.316 µM) of 5.30. For the same compound, the pIC50 (second compound 1 µM) was 5.39, the pIC50 (second compound 3.16 µM) was 5.32 and the pIC50 (second compound 10 µM) was 5.38. The viability, T/C [1] was 56.5%, the viability, T/C [2] was 91.1% and the viability, T/C [3] was 100%. It also gave a viability, T/C [4] of 87.1%, a viability, T/C [5] of 57.7% and a viability, T/C [6] of 35.9%. The viability, T/C [7] was 110%, the viability, T/C [8] was 81.5% and the viability, T/C [9] was 87.1%. The viability, T/C [10] was 73.5%, the viability, T/C [11] was 72.4% and the viability, T/C [12] was 22.2%. It also gave a viability, T/C [13] of 93.2%, a viability, T/C [14] of 82.2% and a viability, T/C [15] of 86.4%. For the same compound, the viability, T/C [16] was 67.7%, the viability, T/C [17] was 69.8% and the viability, T/C [18] was 28.9%. For the same compound, the viability, T/C [19] was 99.1%, the viability, T/C [20] was 84.5% and the viability, T/C [21] was 90.2%. The viability, T/C [22] was 69.1%, the viability, T/C [23] was 58.1% and the viability, T/C [24] was 28.1%. For the same compound, the viability, T/C [25] was 84.7%, the viability, T/C [26] was 83.2% and the viability, T/C [27] was 88.4%. For the same compound, the viability, T/C [28] was 76.6%, the viability, T/C [29] was 60.4% and the viability, T/C [30] was 32.2%. It also gave a viability, T/C [31] of 95.5%, a viability, T/C [32] of 79.2% and a viability, T/C [33] of 86%. For the same compound, the viability, T/C [34] was 69.9%, the viability, T/C [35] was 60.8% and the viability, T/C [36] was 27.1%.

Source: PubChem BioAssay AID1963827 (Molecular Pharmacology Branch, DTP, NCI, 2024)
